According to paper PMC9271048, “Probing strigolactone perception mechanisms with rationally designed small-molecule agonists stimulating germination of root parasitic weeds” (Nature Communications, 2022):
Entries after “also recorded” stand apart in the source; their conditions may differ. Like-named read-outs stand apart in the source and are kept apart here.

How the values were obtained:
[1] = test system: ShHTL7-AtMAX2 interaction; experiment: Yeast two-hybrid assay ShHTL7-AtMAX2; type: cell-based, Striga hermonthica
Procedure: (§1) To construct plasmids for yeast two-hybrid assays, the CDS of ShHTL7 and AtD14 were cloned into yeast expression vector pBrigde to generate BD-ShHTL7 and BD-AtD14, and the CDS of ShMAX2, AtMAX2, SMAX1 were cloned into pGADT7 to make Gal4 DNA activation domain (AD) constructs, respectively. Primers used for yeast expression vector construction are listed in Supplementary Table 6. Yeast two-hybrid assays were performed using the Yeastmaker Yeast Transformation System 2 (Clontech). In brief, Yeast AH109 cells were co-transformed with specific bait and prey constructs and coated on selective growth medium SD/-Leu-Trp for 3 days at 30 °C, pick the positive constructs into liquid selective growth medium SD/-Leu-Trp shaking for 36 h at 30 °C. Washed yeast cells three times and diluted, made sure OD600 reached 2.5, then serial 10-fold dilutions of yeast cultures were spotted onto selective growth mediums that were supplemented with different concentrations of rac-GR24 and tested molecules, respectively. All yeast transformants were grown on a selective growth medium at 30 °C for 3 days.

ShHTL7-SMAX1 interaction = experiment: Yeast two-hybrid assay ShHTL7-SMAX1; type: cell-based, Striga hermonthica
Procedure: as §1

ShHTL7 = ShHTL7 (Striga hermonthica, UniProt A0A0M3PNA2); experiment: Mass spectrometric analysis of covalent modification of ShHTL7; type: biochemical; conditions: for covalent modification of ShHTL7: MS of compound-treated ShHTL7; for mass increase of compound-treated ShHTL7 protein: Q-TOF MS of full-length protein, modification on His246
ShHTL7, sequence (A0A0M3PNA2 entry or part of it): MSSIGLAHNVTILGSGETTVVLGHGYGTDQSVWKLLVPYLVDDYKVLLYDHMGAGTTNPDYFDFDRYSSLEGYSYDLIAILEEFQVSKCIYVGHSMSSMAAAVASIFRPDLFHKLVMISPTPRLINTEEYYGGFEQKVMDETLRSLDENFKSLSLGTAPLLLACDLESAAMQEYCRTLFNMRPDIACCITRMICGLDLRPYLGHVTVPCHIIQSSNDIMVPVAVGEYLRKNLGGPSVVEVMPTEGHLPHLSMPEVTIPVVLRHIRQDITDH
Excerpt: This was consistent with the hydrolysis of natural and synthetic SLs, in which, the (2′R)-isomers are more prone to hydrolysis by ShHTL7 than the (2′S)-isomers[26],[40]. […] Based on the above observations, we inferred that (S)-4a may have similar biochemical properties as 2′R-configured SLs. We then examined whether (S)-4a binding, just as for rac-GR24, would result in a covalently linked molecule in ShHTL7 by using Q-TOF mass spectrometry (SYNAPT-G2-Si, Waters company) analysis. […] For (R)-4a and 4g, a weak peak (increase of 95 Da or 94 Da) of similar modification was found, respectively (Fig. 3). A similar modification was not observed in 4h and 4i treated samples (Supplementary Fig. 12b, c). To furtherly identify the specific modification of the increased mass of 94 Da or 95 Da, we incubated (R)-4a, (S)-4a, and 4g with ShHTL7, followed by gel digestion and MS/MS analysis. […] No covalently linked molecule presence was identified in 4h treated ShHTL7 (Supplementary Fig. 12b). We assume that this is due to the fact that the N-CH3 D-lactam modified His246 is more reactive, resulting in quick decomposition of the intermediate.
For LC-MS analysis: a 200 μL reaction solution (100 mM HEPES, 150 mM NaCl, pH 7.0) containing 10, or 400 μM of tested samples 4a, (R)- and (S)-4a, and 4g-i, and 100 μg of recombinant ShHTL7 or its mutants was incubated at 25 °C for 30 min. Subsequently, the solution was filtered and analyzed by a nanoACQUITY UPLC system, which was directly interfaced with an SYNAPT-G2-Si mass spectrometer produced by Waters Company. For LC-MS/MS analysis, the above chemicals treated ShHTL7 reaction solution was subjected to the SDS-PAGE analysis. The corresponding protein band around 30 KDa was excised, respectively, then digested with trypsin (Promega) in NH4HCO3 solution (50 mM) at 37 °C for 24 h[23],[26]–[28]. The covalent modification of C5H5O2/C6H6O on the peptide was analyzed by a Thermo-Dionex Ultimate 3000 HPLC system, which was directly interfaced with a Thermo Orbitrap Fusion Lumos mass spectrometer. MS-MS spectra are generated by pLabel software[53],[54].

[2] = test system: ShHTL7-ShMAX2 interaction; experiment: Yeast two-hybrid assay ShHTL7-ShMAX2; type: cell-based, Striga hermonthica
Procedure: as §1

AtD14 = target: T1, AtD14 (Arabidopsis thaliana, UniProt Q9SQR3); experiment: Competitive inhibition of AtD14 with YLG as substrate; type: biochemical
T1 construct: His tag; made in house; host or cells: E. coli BL21
T1 sequence (Q9SQR3 1-267): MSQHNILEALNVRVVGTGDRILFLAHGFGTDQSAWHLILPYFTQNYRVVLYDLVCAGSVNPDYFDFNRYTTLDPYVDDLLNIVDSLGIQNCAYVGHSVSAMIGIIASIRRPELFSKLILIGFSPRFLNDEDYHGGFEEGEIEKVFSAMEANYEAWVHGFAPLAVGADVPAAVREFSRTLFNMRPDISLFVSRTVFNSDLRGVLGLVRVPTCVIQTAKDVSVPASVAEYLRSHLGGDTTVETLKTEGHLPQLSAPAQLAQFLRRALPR
Procedure: The excitation and emission wavelengths of YLG are 480 and 520 nm, respectively. We used a fluorescence spectrophotometer (CARY Eclipse) to detect the fluorescence intensity change of YLG during the enzymatic hydrolysis assay process. All the testing compounds and YLG were dissolved in DMSO and prepared as stock solutions just before use. […] The changes of fluorescence at 520 nm of each well were recorded every 1 min for 30 min. Using the reaction mixture without adding enzyme and tested compounds as the background control. After subtracting the background hydrolysis, a linear fluorescence increase in 8 min was used for further inspection. The IC50 values were determined via fitting relative inhibition percentages with the varying concentrations of compounds in Microsoft Excel.

Striga hermonthica seeds = experiment: S. hermonthica seed germination assay; type: in vivo; conditions: source data of Fig. 2d, average of 2 or 3; for EC50: Striga hermonthica, 48 h
Procedure: Two hundred mg of Striga hermonthica seeds were surface sterilized in 2% sodium hypochlorite containing 0.02% Tween-20 for 5 min, and then washed five times with sterile MilliQ water. The sterilized Striga seeds were spread on sterile glass fiber-filter papers (Whatman® GF/A, Sigma–Aldrich) in Petri dishes containing filter paper moistened with 3 mL sterile MilliQ water. The Petri dishes were incubated 6–8 days at 30 °C for preconditioning after which the seeds were dried in a laminar sterile air flow for 2 h. The germination bioassay was performed in 0.1% agarose and 0.1 ppm rac-GR24 was used as a positive control. Stocks of rac-GR24 and other compounds were prepared in acetone and diluted before use. Dried preconditioned seeds were added to the agarose containing the relevant compound, which was subsequently divided over three wells of a 12-well Cell Culture Treated Plates (Fisher Scientific, Landsmeer, the Netherlands). The plates were sealed and incubated in the dark at 30 °C for 2 days. The Striga germination rate in % (GR%) was calculated for each replicate using the formula: GR% = (Ngs/Nts) × 100, where Ngs is the number of germinated seeds per well and Nts is the total number of seeds per well. EC50 values of the compounds were calculated using http://www.ic50.tk/index.html.

[3] = YLG as the substrate, read-out: Competitive AtD14 inhibitory activity IC50

With `CC1=CC(CC(=O)N2CCN(C(=O)COc3ccc(Br)cc3C)CC2)OC1=O` (centres unmarked) [4i] the “induction of ShHTL7-AtMAX2 interaction (Y2H)” value ([1]; 200 μM) was “almost no ligand-induced interactions were observed”, the “induction of ShHTL7-SMAX1 interaction (Y2H)” value (ShHTL7-SMAX1 interaction; 200 μM) was “almost no ligand-induced interactions were observed” and the “covalent modification of ShHTL7” value (ShHTL7) was “not observed”. The “induction of ShHTL7-ShMAX2 interaction (Y2H)” value ([2]; 200 μM) was “almost no ligand-induced interactions were observed”.
With `CC1=CC(OC(=O)N2CCN(C(=O)COc3ccc(Br)cc3C)CC2)N(C)C1=O` (centres unmarked) [4h] the “covalent modification of ShHTL7” value (ShHTL7) was “not observed”.
With `CC1=CC(OC(=O)N2CCN(C(=O)COc3ccc(Br)cc3C)CC2)CC1=O` (centres unmarked) [4g] the “induction of ShHTL7-AtMAX2 interaction (Y2H)” value ([1]; 200 μM) was “only weak ligand-induced interactions”, the “induction of ShHTL7-SMAX1 interaction (Y2H)” value (ShHTL7-SMAX1 interaction; 200 μM) was “only weak ligand-induced interactions” and the “mass increase of compound-treated ShHTL7 protein” value (“mass increase” for short) (ShHTL7) was 94 Da.
`CC1=C[C@H](O/C=C2/C(=O)O[C@@H]3c4ccccc4C[C@H]23)OC1=O` (racemic) [rac-GR24, reference compound] was tested, and the IC50 (AtD14; source data of Fig. 4b and Supplementary Fig. 14, read-out: Competitive AtD14 inhibitory activity IC50, source data average) was 6.54 µM and the “S. hermonthica germination EC50 values, source data average” value (Striga hermonthica seeds) was 10.4655.
For `CC1=CC(OC(=O)N2CCN(C(=O)COc3ccc(Br)cc3C)CC2)OC1=O` (centres unmarked) [4a], the IC50 (AtD14; [3]) was over 100 µM, the “induction of ShHTL7-AtMAX2 interaction (Y2H)” value ([1]; 1 μM) was “strongly induce the interaction” and the “induction of ShHTL7-SMAX1 interaction (Y2H)” value (ShHTL7-SMAX1 interaction; 1 μM) was “strongly induce the interaction”. For the same compound, the “induction of ShHTL7-ShMAX2 interaction (Y2H)” value ([2]; 0.01 μM (10 nM)) was “could still promote the ShHTL7-ShMAX2 interaction”, the “induction of ShHTL7-ShMAX2 interaction (Y2H)” value ([2]; 1 μM) was “strongly induce the interaction” and the EC50 (Striga hermonthica seeds) was 0.00107 nM.
For `CC1=C[C@@H](OC(=O)N2CCN(C(=O)COc3ccc(Br)cc3C)CC2)OC1=O` [(R)-4a], the IC50 (AtD14; [3]) was over 100 µM, the “induction of ShHTL7-AtMAX2 interaction (Y2H)” value ([1]; 200 μM) was “did induce the interaction” and the “induction of ShHTL7-AtMAX2 interaction (Y2H)” value ([1]; 1 and 5 μM) was “no ShHTL7-SMAX1 or ShHTL7-AtMAX2 interactions were detected”. The “induction of ShHTL7-SMAX1 interaction (Y2H)” value (ShHTL7-SMAX1 interaction; 200 μM) was “did induce the interaction”, the “induction of ShHTL7-SMAX1 interaction (Y2H)” value (ShHTL7-SMAX1 interaction; 1 and 5 μM) was “no ShHTL7-SMAX1 or ShHTL7-AtMAX2 interactions were detected” and the “mass increase” value (ShHTL7) was 95 Da. The EC50 (Striga hermonthica seeds) was 1.1 nM.
With `CC1=C[C@H](OC(=O)N2CCN(C(=O)COc3ccc(Br)cc3C)CC2)OC1=O` [(S)-4a] the IC50 (AtD14; [3]) was over 100 µM, the “induction of ShHTL7-AtMAX2 interaction (Y2H)” value ([1]; 1 μM) was “strongly induce the interaction” and the “induction of ShHTL7-SMAX1 interaction (Y2H)” value (ShHTL7-SMAX1 interaction; 1 μM) was “strongly induce the interaction”. The “mass increase” value (ShHTL7) was 94 Da, the “induction of ShHTL7-ShMAX2 interaction (Y2H)” value ([2]; 0.01 μM (10 nM)) was “could still promote the ShHTL7-ShMAX2 interaction; also recorded: promoted ShHTL7-ShMAX2 interaction” and the “induction of ShHTL7-ShMAX2 interaction (Y2H)” value ([2]; 1 μM) was “strongly induce the interaction”.
